Test [1] has as its target T1, Adenosine receptor A2b (Homo sapiens, UniProt P29275).
T1 sequence (P29275 whole entry): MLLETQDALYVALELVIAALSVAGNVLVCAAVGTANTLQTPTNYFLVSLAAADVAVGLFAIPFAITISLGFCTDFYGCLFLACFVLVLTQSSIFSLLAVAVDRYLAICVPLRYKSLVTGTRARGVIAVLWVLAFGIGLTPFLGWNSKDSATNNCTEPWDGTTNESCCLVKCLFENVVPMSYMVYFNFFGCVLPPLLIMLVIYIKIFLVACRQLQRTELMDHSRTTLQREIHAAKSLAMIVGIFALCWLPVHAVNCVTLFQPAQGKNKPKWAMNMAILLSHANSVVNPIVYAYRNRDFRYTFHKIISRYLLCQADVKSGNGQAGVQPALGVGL
Kind of test: Binding affinity of compound for displacement of [3H]DPCPX binding in HEK293 membranes expressing human A2B adenosine receptors. For orientation: In a radioligand displacement assay an active substance lowers the binding of a labelled ligand.

In test [2] the target is T1, Adenosine receptor A2b. Kind of test: Binding affinity of compound for displacement of specific [3H]- DPCPX binding at human A2B receptors expressed in HEK293 cells. It counts as cell-based.
For test [3], the target named is T1, Adenosine receptor A2b. Kind of test: Inhibitory activity against cAMP production in CHO cells transfected with human A2B adenosine receptor. The test is classed as functional, cell-based. (In general: Cyclic AMP is a second messenger, typically raised through Gs and lowered through Gi signalling.)
Test [4] deals with T2, Adenosine receptor A1 (Homo sapiens, UniProt P30542).
T2 sequence (P30542 whole entry): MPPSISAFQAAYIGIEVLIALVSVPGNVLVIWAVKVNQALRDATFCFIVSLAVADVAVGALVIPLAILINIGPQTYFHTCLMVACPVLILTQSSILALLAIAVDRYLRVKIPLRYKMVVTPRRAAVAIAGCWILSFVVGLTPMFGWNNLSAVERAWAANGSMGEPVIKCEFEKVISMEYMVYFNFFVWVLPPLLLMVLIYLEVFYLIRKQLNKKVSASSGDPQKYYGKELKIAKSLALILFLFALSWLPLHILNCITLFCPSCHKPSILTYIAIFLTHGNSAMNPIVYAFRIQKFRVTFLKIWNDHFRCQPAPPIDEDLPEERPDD
Put plainly: Displacement of specific [3H]DPCPX binding at human adenosine A1 receptor expressed in CHO cells. The test is classed as cell-based.

Test [5] addresses T3, Adenosine receptor A3 (Homo sapiens, UniProt P0DMS8).
T3 sequence (P0DMS8 whole entry): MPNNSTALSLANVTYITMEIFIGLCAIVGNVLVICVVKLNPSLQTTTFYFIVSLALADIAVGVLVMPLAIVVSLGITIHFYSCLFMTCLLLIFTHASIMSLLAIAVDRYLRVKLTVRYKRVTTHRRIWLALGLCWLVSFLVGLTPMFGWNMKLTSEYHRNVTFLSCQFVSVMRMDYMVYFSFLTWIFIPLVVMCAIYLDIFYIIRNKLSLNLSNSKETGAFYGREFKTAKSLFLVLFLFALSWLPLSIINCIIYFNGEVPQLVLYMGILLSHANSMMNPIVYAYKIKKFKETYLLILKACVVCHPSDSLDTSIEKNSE
Kind of test: Binding affinity of compound for displacement of specific [3H]MRE3008-F20 binding at human A3 receptors expressed in CHO cells. The test is classed as cell-based.

Test [6] addresses Adenosine receptor A2a (Homo sapiens, UniProt P29274). Kind of test: Binding affinity of compound for displacement of specific [3H]ZM-241385 binding at human adenosine A2A receptor expressed in CHO cells. The test is classed as cell-based.

pIC50, pKi: −log10 of the molar value. Several values for one entry are separate records, joined by “and”; a condition that tells them apart may be missing. Identical values can stand only once.

Sequence of Adenosine receptor A2a (P29274 whole entry): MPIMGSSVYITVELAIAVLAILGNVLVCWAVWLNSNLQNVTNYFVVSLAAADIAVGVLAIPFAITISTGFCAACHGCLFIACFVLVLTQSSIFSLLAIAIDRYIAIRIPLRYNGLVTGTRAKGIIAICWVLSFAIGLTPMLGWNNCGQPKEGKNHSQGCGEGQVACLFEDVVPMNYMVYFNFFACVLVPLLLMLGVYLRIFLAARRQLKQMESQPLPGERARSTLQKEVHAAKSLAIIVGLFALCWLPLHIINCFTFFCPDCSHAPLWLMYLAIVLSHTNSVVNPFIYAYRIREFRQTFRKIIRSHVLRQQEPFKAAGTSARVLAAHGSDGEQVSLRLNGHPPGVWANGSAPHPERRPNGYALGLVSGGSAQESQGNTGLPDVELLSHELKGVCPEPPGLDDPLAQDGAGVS

A word on the pKi: it is −log10 of the Ki, conventionally taken in molar units. The low end stands for a high Ki, the high end for a low Ki. For orientation: pIC50 means the IC50 on a negative log10 scale, so that one unit is a factor of ten. A high value points to a small IC50. For `CCCn1c(=O)c2[nH]c(-c3cc(OCC(=O)N4CCN(C)CC4)nn3C)nc2n(CCC)c1=O`, the pKi in test [1] was 7.12; in test [2] it was 7.12; in test [4], < 6.00; in test [4] (cho) it was < 6.00. Besides, the pIC50 in test [3] is 6.49.
Turning to `CCCn1c(=O)c2nc(-c3cc(OCC(=O)Nc4ccc5c(c4)OCO5)no3)[nH]c2n(CCC)c1=O`, the pKi was 7.33 in test [1]; 7.33 in test [2]; < 6.00 in test [5]; < 6.00 in test [4]; < 6.00 in test [6]. The molecule also showed a pIC50 in test [3] of 6.85.
Turning to `CCCn1c(=O)c2[nH]c(-c3cc(OCC(=O)Nc4ccc(C(=O)OCC)cc4)nn3C)nc2n(CCC)c1=O`, the negative-log Ki (pKi) in test [1] was 7.49; in test [4], < 6.00. The molecule further showed a pIC50 in test [3] of 6.92.
In the case of `CCCn1c(=O)c2[nH]c(-c3cc(OCC(=O)N4CCN(c5ccccc5)CC4)nn3C)nc2n(CCC)c1=O`, the pKi in test [1] is 7.92 and 7.82; in test [2], 7.92; in test [4], 6.59. Moreover, the pIC50 in test [3] was 7.15 and 7.19.
Turning to `CCCn1c(=O)c2[nH]c(-c3ccc(OCC(=O)Nc4ccc(I)cc4)nc3)nc2n(CCC)c1=O`, the pKi in test [1] is 6.97; in test [4] it was < 6.00. In test [3], the pIC50 is 6.32.
On the same counts, the results for `CCCn1c(=O)c2[nH]c(-c3cc(NC(=O)Cc4ccc(OCc5ccccc5)cc4)nn3C)nc2n(CCC)c1=O` are 7.25, < 6.00 and 6.73.

The values are drawn from ChEMBL document CHEMBL1148292 (J Med Chem, 2004).
